Measurements: US9493464B2, “Wee1 degradation inhibitors” (The Scripps Research Institute, priority 2012, dated 2016)
pEC50, pIC50: −log10 of the molar value. Where “and” joins values, the source holds several entries; their conditions need not be identical. Equal entries are not always repeated.

Tests used:
FLT3 = molecular target: T1, FLT3 (Homo sapiens, UniProt P36888); experiment: In vitro kinase assay, FLT3 (Reaction Biology Corporation); assay type: biochemical; conditions: determined by Reaction Biology Corporation; read-out: IC50 FLT3
T1 construct: Reaction Biology Corporation (contract assay)
T1 sequence (P36888 27-993): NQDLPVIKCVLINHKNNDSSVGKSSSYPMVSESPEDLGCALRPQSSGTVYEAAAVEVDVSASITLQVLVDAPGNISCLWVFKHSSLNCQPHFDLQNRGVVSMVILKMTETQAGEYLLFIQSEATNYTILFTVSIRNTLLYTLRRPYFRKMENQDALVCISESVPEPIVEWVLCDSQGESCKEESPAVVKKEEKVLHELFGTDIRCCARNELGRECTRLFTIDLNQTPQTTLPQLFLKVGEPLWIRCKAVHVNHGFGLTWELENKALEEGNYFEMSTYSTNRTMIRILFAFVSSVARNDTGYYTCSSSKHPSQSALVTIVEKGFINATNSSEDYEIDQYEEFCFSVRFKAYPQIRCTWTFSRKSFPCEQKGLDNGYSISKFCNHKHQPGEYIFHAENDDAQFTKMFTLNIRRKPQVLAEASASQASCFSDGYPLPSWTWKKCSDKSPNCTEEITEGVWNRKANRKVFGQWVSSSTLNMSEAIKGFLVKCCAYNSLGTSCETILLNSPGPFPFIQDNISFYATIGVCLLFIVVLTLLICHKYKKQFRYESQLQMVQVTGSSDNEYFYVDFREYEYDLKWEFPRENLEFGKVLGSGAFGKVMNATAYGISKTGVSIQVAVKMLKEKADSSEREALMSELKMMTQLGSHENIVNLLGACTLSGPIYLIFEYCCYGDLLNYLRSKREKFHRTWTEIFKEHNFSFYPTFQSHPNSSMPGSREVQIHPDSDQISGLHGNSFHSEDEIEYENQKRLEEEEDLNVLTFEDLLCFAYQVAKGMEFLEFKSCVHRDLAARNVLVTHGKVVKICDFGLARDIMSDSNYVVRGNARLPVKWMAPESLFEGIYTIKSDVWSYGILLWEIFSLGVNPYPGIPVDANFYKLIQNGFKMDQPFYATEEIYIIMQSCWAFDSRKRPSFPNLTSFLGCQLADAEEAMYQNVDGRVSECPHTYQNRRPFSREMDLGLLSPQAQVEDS
Experimental: (§1) Compounds were tested in 10-dose IC50 mode with 3-fold serial dilution starting at 50 μM. […] Reactions were carried out at 10 μM ATP. Average and standard deviations of reactions carried out in triplicate are shown.
(§2) In vitro kinase assay to detect CK1 or FLT3 activity: CK1 and FLT3 assays as well as complete kinase profile of 296 kinases was performed by Reaction Biology Corporation. For FLT3 20 μM final Abltide was used, sequence: [[…]]. For CK1 (all isoforms) 20 μM CK1 tide was used, sequence: [KRRRAL[pS]VASLPGL] in a standard kinase assay with ^32P-ATP and purified kinase. Incorporation of ^32P-ATP into the peptide was measured after a filter-binding assay. In-house CK1d inhibition assays were performed using a standard homogenous time-resolved fluorescence resonance energy transfer (TR-FRET) format in 50 mM Hepes, pH 7.0, 2.5 mM MgCl2, 0.1 mg/ml bovine serum albumin, 1 mM DL-dithiothreitol, 0.01% Triton X-100 (all from Sigma-Aldrich). Briefly, the CK1δ substrate (DEKTDDE, containing CK1 consensus sequence; 4 μL of a 500 nM stock solution) is labeled with a small Ulight acceptor dye (PerkinElmer). In the presence of 10 μL of 10 nM CK1δ, the Ulight peptide is phosphorylated at a single amino acid that is specifically recognized by a europium chelate (Eu)-labeled phosphospecific antibody. Assays were performed in the presence of 2 μL of compound at different (measured) concentrations, and reactions were stopped by adding 10 μL of 4 nM Eu-anti-p-Topo-IIa (PerkinElmer) in Lance Detection Buffer (Perkin Elmer). Upon excitation of the Eu-labeled antibody, energy is transferred to the acceptor dye resulting in the emission of detected light at 665 nm.

CK1δ = CK1δ (Homo sapiens, UniProt P48730); experiment: In vitro kinase assay, CK1d, 32P-ATP filter binding (Reaction Biology Corporation); assay type: biochemical; conditions: footnote a: determined by Reaction Biology Corporation; read-out: IC50 CK1d
Experimental: as §1, §2

A498 (renal) = experiment: NCI Dose Growth Inhibition assay (NCI-60); assay type: cell-based; conditions: Homo sapiens; A498 (renal); read-out: GI50
Experimental: (§3) Table 3, below, illustrates the activity of some of the compounds of the present invention in the National Cancer Institute's Dose Growth Inhibition assay against several human tumor cell lines selected from the NCI-60 panel.
(§4) NCI-60 Cancer Cell Line Screening was performed by the National Cancer Institute, using the procedures described on their website (http://dtp.nci.nih.gov/branches/btb/ivelsp.html)

COLO 205 (colon) = experiment: NCI Dose Growth Inhibition assay (NCI-60); assay type: cell-based; conditions: Homo sapiens; COLO 205 (colon); read-out: GI50
Experimental: as §3, §4

MDA-MB-468 (breast) = experiment: NCI Dose Growth Inhibition assay (NCI-60); assay type: cell-based; conditions: Homo sapiens; MDA-MB-468 (breast); read-out: GI50
Experimental: as §3, §4

RXF393 (renal) = experiment: NCI Dose Growth Inhibition assay (NCI-60); assay type: cell-based; conditions: Homo sapiens, RXF 393; RXF393 (renal); read-out: GI50
Experimental: as §3, §4

SNB-75 (CNS) = experiment: NCI Dose Growth Inhibition assay (NCI-60); assay type: cell-based; conditions: Homo sapiens; SNB-75 (CNS); read-out: GI50
Experimental: as §3, §4

UACC-62 (melanoma) = experiment: NCI Dose Growth Inhibition assay (NCI-60); assay type: cell-based; conditions: Homo sapiens; UACC-62 (melanoma); read-out: GI50
Experimental: as §3, §4

K328M-Wee1-luciferase = experiment: Wee1-luciferase assay (stabilization of K328M-Wee1-luciferase); assay type: cell-based; conditions: for % Inhibition, Wee1 Degradation: at 250 nM, reported relative to SR-1277 = 100%; for pEC50: read-out: Wee1 Stabilization
Source text: Steady-state level of K328M-Wee1-Luciferase (K328M-Wee1-Luc) was divided by Luciferase level (Luc) and plotted.
(§5) Similar assays have previously been described; PubChem AID 1807.

[1] = tested on: cerebellar granule cell progenitors (GCPs); experiment: In vitro proliferation of cerebellar granule cell progenitors (3H-thymidine uptake); assay type: cell-based, mouse; conditions: 24 hours; result in words
Experimental: GCPs were incubated with DMSO, 5 μM D4476 (known CK1δ and CK1ε inhibitor), or 50 μM D4476 and processed for ^3H-thymidine incorporation after 24 hours. A representative experiment performed in triplicate is shown.

Luciferase = Luciferase alone control (PGL3 vector); assay type: cell-based; conditions: HeLa cells; result in words
Experimental: The percentage of signal relative to the proteasome inhibitor MG132 is shown. […] A Western blot is shown of endogenous Wee1 or Skp1 (loading control) of HeLa cells incubated with 5 μM of indicated compounds for 24 hours. […] The 0 time point was set to 100%. […] The extent of degradation was measured as in FIG. D.
5 μM of indicated compounds were incubated with K328M-Wee1-Luciferase or Luciferase expressing HeLa cells and the extent of stabilization measured after adding Brite-lite. MG132 was used as a positive control.
as §5

Sequence of CK1δ (P48730 whole entry): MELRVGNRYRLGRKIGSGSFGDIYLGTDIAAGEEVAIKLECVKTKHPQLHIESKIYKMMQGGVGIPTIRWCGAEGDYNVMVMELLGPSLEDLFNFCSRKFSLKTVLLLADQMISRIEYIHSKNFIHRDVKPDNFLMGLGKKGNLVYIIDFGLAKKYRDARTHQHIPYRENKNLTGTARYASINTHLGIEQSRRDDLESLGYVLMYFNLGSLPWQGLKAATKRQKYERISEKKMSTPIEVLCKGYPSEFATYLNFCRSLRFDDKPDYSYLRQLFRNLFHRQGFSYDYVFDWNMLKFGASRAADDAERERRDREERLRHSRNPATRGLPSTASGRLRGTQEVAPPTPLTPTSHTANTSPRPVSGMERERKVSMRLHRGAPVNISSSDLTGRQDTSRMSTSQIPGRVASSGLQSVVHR

Structure (SMILES)	pIC50 (FLT3)	pIC50 (CK1δ)	% Inhibition, Wee1 Degradation (K328M-Wee1-luciferase) [%]	also measured
COc1ccc2[nH]c(CNc3nc(N4CCNCC4)nc4c3ncn4-c3ccoc3)nc2c1 [SR-2891]	6.11	7.96	–	GI50 (A498 (renal)): 321 nM; GI50 (COLO 205 (colon)): 30 nM; GI50 (MDA-MB-468 (breast)): < 10 nM; GI50 (RXF393 (renal)): 49 nM; GI50 (SNB-75 (CNS)): 24 nM; GI50 (UACC-62 (melanoma)): 174 nM
FC(F)(F)c1cc(Br)c2nc(CNc3nc(N4CCOCC4)nc4c3ncn4-c3ccsc3)[nH]c2c1 [SR-1285]	5.32	6.28	13.4	–
CCOC(=O)c1cccc2[nH]c(CNc3nc(N4CCOCC4)nc4c3ncn4-c3ccsc3)nc12 [SR-1282]	6.26	6.44	97.3	pEC50 (K328M-Wee1-luciferase): 6.68
CN1CCN(c2nc(NCc3nc4cc(Cl)ccc4[nH]3)c3ncn(-c4ccoc4)c3n2)CC1 [SR-2849]	6.74	7.96	–	GI50 (A498 (renal)): 113 nM; GI50 (COLO 205 (colon)): 25 nM; GI50 (MDA-MB-468 (breast)): < 10 nM; GI50 (RXF393 (renal)): 17 nM; GI50 (SNB-75 (CNS)): 19 nM; GI50 (UACC-62 (melanoma)): 130 nM
CS(=O)(=O)c1ccc2[nH]c(CNc3nc(N4CCOCC4)nc4c3ncn4-c3ccsc3)nc2c1 [SR-2797]	7.16	8.00	–	–
c1ccc2[nH]c(CNc3nc(N4CCNCC4)nc4c3ncn4-c3ccsc3)nc2c1 [SR-1292]	7.80	8.52	14.5	–
CN1CCN(c2nc(NCc3nc4cc(F)ccc4[nH]3)c3ncn(-c4ccoc4)c3n2)CC1 [SR-2866]	6.67	7.70	–	–
O=[N+]([O-])c1ccc2[nH]c(CNc3nc(N4CCOCC4)nc4c3ncn4-c3ccsc3)nc2c1 [SR-1278]	6.62	7.68	18.7	–
COc1ccc2[nH]c(CNc3nc(N4CCOCC4)nc4c3ncn4-c3ccsc3)nc2c1 [SR-1279]	7.85	7.77	79.5	–
FC(F)(F)c1cccc2[nH]c(CNc3nc(N4CCOCC4)nc4c3ncn4-c3ccsc3)nc12 [SR-1272]	6.58	6.89	10.8	–
c1ccc2[nH]c(CNc3nc(N4CCOCC4)nc4c3ncn4C3CCCC3)nc2c1 [SR-2149]	6.40	7.34	6.1	–
CS(=O)(=O)c1cccc2[nH]c(CNc3nc(N4CCOCC4)nc4c3ncn4-c3ccsc3)nc12 [SR-2805]	7.24	7.80	–	–
CC(C)n1cnc2c(NCc3nc4c([N+](=O)[O-])cccc4[nH]3)nc(N3CCOCC3)nc21 [SR-1284]	4.55	6.09	111.2	pEC50 (K328M-Wee1-luciferase): 6.70
Cn1c(CNc2nc(N3CCOCC3)nc3c2ncn3-c2ccsc2)nc2ccccc21 [SR-2001]	6.90	7.66	1.7	–
COc1ccc2[nH]c(CNc3nc(N4CCN(C)CC4)nc4c3ncn4-c3ccoc3)nc2c1 [SR-2848]	6.53	7.54	–	–
Clc1ccc2[nH]c(CNc3nc(N4CCOCC4)nc4c3ncn4-c3ccsc3)nc2c1 [SR-1274]	6.52	6.98	101.2	pEC50 (K328M-Wee1-luciferase): 6.79
N#Cc1ccc2[nH]c(CNc3nc(N4CCOCC4)nc4c3ncn4-c3ccsc3)nc2c1 [SR-1276]	7.21	7.96	85.9	–
O=[N+]([O-])c1cccc2[nH]c(CNc3nc(N4CCOCC4)nc4c3ncn4-c3ccoc3)nc12 [SR-2007]	6.46	7.74 and 7.72	81.1	–
Clc1ccc2[nH]c(CNc3nc(N4CCOCC4)nc4c3ncn4-c3ccoc3)nc2c1 [SR-2850]	6.89	7.64	–	–
FC(F)(F)c1ccc2[nH]c(CNc3nc(N4CCOCC4)nc4c3ncn4-c3ccsc3)nc2c1 [SR-1273]	6.29	7.89	46.3	–
CN1CCN(c2nc(NCc3nc4ccccc4[nH]3)c3ncn(-c4ccsc4)c3n2)CC1 [SR-1294]	7.17	7.96	14.1	–
Fc1cccc(-n2cnc3c(NCc4nc5cc(Cl)ccc5[nH]4)nc(N4CCNCC4)nc32)c1 [SR-2890]	6.09	8.40	–	GI50 (A498 (renal)): 207 nM; GI50 (COLO 205 (colon)): 29 nM; GI50 (MDA-MB-468 (breast)): 12 nM; GI50 (RXF393 (renal)): 41 nM; GI50 (SNB-75 (CNS)): 46 nM; GI50 (UACC-62 (melanoma)): 182 nM
c1ccc2cc3[nH]c(CNc4nc(N5CCOCC5)nc5c4ncn5-c4ccsc4)nc3cc2c1 [SR-1280]	6.01	6.89	48.3	–
NC(=O)c1ccc(-c2nc(-c3ccc4c(c3)OCCO4)c(-c3ccccn3)[nH]2)cc1 [Compound D4476, reference compound]	–	–	–	stabilization of K328M-Wee1-luciferase (K328M-Wee1-luciferase; HeLa cells, result in words): stabilizes K328M-Wee1-luciferase; inhibition of GCP proliferation (3H-thymidine) [1]: inhibited GCP proliferation; Luciferase levels (Luciferase): does not affect Luciferase levels
Fc1ccc2[nH]c(CNc3nc(N4CCOCC4)nc4c3ncn4-c3ccsc3)nc2c1 [SR-1275]	7.10	7.30	81.4	–
Clc1ccc2[nH]c(CNc3nc(N4CCNCC4)nc4c3ncn4-c3ccoc3)nc2c1 [SR-2889]	7.09	8.30	–	GI50 (A498 (renal)): 24 nM; GI50 (COLO 205 (colon)): < 10 nM; GI50 (MDA-MB-468 (breast)): < 10 nM; GI50 (RXF393 (renal)): < 10 nM; GI50 (SNB-75 (CNS)): < 10 nM; GI50 (UACC-62 (melanoma)): 17 nM
